Active and inactive are the calls of the source. The rule behind the calls is not given here.

The IC50 is the point on the concentration scale where inhibition reaches its midpoint. A high value points to weaker potency in that assay.

Experiment [1] deals with KB. In words: Cytotoxicity against Homo sapiens (human) KB cells after 72 hr by MTT assay. It counts as functional, cell-based. In general terms: Tetrazolium dyes change colour on reduction, which living cells bring about.
The subject of another experiment is A549. In words: Cytotoxicity against Homo sapiens (human) A549 cells after 72 hr by MTT assay. The experiment is classed as functional, cell-based. To be noted: A549, 72 h.
The subject of another experiment is SW480. In words: Cytotoxicity against Homo sapiens (human) SW480 cells after 72 hr by MTT assay. It counts as functional, cell-based. To be noted: SW480, 72 h.
For another experiment, the system named is Leishmania. Description: Antileishmanial activity against Leishmania promastigotes. It counts as functional, organism-based.
Experiment [2] can be described thus: Antiproliferative activity against Homo sapiens (human) monocytes. It counts as cell-based. To be noted: Monocyte.
The test system of experiment [3] is KB. In words: Induction of apoptosis in Homo sapiens (human) KB cells assessed as downregulation of bcl2 expression at 5 to 15 uM after 72 hr by Western blot analysis. It counts as functional, cell-based. (In western blotting, separated proteins are transferred to a membrane and probed.)
Experiment [4] deals with KB. Description: Induction of apoptosis in Homo sapiens (human) KB cells assessed as upregulation of bax expression at 5 to 15 uM after 72 hr by Western blot analysis. It counts as functional, cell-based.
Experiment [5] deals with KB. Description: Induction of apoptosis in Homo sapiens (human) KB cells assessed as appearance of apoptotic bodies n at 5 to 10 uM after 72 hr using AO/EB staining by fluorescence microscopy. The experiment is classed as functional, cell-based.
The subject of experiment [6] is KB. In words: Induction of apoptosis in Homo sapiens (human) KB cells assessed as early apoptic cells with nuclear condensation at 5 to 10 uM after 72 hr using AO/EB staining by fluorescence microscopy. It counts as functional, cell-based.
The subject of experiment [7] is KB. In words: Induction of apoptosis in Homo sapiens (human) KB cells assessed as nuclear condensation at 5 to 10 uM after 72 hr using Hoechst/PI staining by fluorescence microscopy. It counts as functional, cell-based.
The subject of experiment [8] is KB. In words: Induction of apoptosis in Homo sapiens (human) KB cells assessed as increase in cleaved caspase 3 level after 72 hr by Western blot analysis. It counts as functional, cell-based.
For experiment [9], the system named is KB. In words: Induction of apoptosis in Homo sapiens (human) KB cells assessed as nuclear fragmentation at 5 to 10 uM after 72 hr using AO/EB staining by fluorescence microscopy. It counts as functional, cell-based.

Turning to `O=C1OCc2c1c(-c1ccccc1)c1cc3c(cc1c2O)OCO3`, the IC50 in the experiment with KB [1], in the experiment with A549 and with SW480 was more than 100 µM throughout.

As to `COc1ccccc1-c1c2c(c(O)c3cc4c(cc13)OCO4)COC2=O`, the IC50 with KB [1] is more than 100 µM; with A549, more than 100 µM; in the experiment with SW480, 21.1 µM.

`COc1cc2c(O)c3c(c(-c4ccc5c(c4)OCO5)c2cc1OC)C(=O)OC3` [DIPHYLLIN]: the IC50 in the experiment on Leishmania came to 14.4 µM; with KB [1] it was 5.3 µM; in experiment [2], 35.2 µM; with A549, 8 µM; in the experiment on SW480 it was 3.4 µM.

With `COc1ccc(OC)c(-c2c3c(c(O)c4cc5c(cc24)OCO5)COC3=O)c1`, the IC50 in the experiment with KB [1], in the experiment with A549 and with SW480 was more than 100 µM in each case.

Turning to `O=C1OCc2c1c(-c1ccc3c(c1)OCO3)c1cc3c(cc1c2O)OCO3` [TAIWANIN E], the figures for the IC50 in the experiment with KB [1], with A549 and with SW480 were 19.7 µM, 53.3 µM and more than 100 µM, respectively.

With `COc1cccc(-c2c3c(c(O)c4cc5c(cc24)OCO5)COC3=O)c1`, the IC50 was more than 100 µM in the experiment with KB [1], 68.6 µM with A549 and more than 100 µM in the experiment with SW480.

Regarding `COc1ccc(-c2c3c(c(O)c4cc5c(cc24)OCO5)COC3=O)cc1`, the IC50 in the experiment with KB [1] is more than 100 µM; in the experiment with A549, 35.6 µM; in the experiment on SW480, more than 100 µM.

`Cc1ccc(-c2c3c(c(O)c4cc5c(cc24)OCO5)COC3=O)cc1`: the outcome in the experiment with KB [3], in the experiment with KB [4], in the experiment on KB [5], in the experiment with KB [6], in the experiment on KB [7] and in the experiment with KB [9] was Active. Also, the IC50 is 18.9 µM in the experiment with KB [1], 30 µM in the experiment with A549 and 4 µM in the experiment with SW480. The Activity result in the experiment with KB [8] was “Dose-dependent effect”.

Regarding `COc1cc(OC)cc(-c2c3c(c(O)c4cc5c(cc24)OCO5)COC3=O)c1`, the IC50 in the experiment on KB [1] is 33.3 µM; in the experiment on A549, more than 100 µM; in the experiment on SW480, more than 100 µM.

For the compound `COc1cc(-c2c3c(c(O)c4cc5c(cc24)OCO5)COC3=O)cc(OC)c1OC` [DEHYDROPODOPHYLLOTOXIN], the IC50 in the experiment on KB [1] was 29.1 µM; in the experiment on A549, 107 µM; in the experiment with SW480 it was more than 100 µM.

Regarding `COc1ccc(-c2c3c(c(O)c4cc5c(cc24)OCO5)COC3=O)cc1OC`, the IC50 with KB [1] was 45.2 µM; in the experiment with A549, 39.5 µM; in the experiment on SW480, more than 100 µM.

Turning to `COc1cc([C@@H]2c3cc4c(cc3[C@@H](O[C@@H]3O[C@@H]5CO[C@@H](C)O[C@H]5[C@H](O)[C@H]3O)[C@H]3COC(=O)[C@H]23)OCO4)cc(OC)c1O` [ETOPOSIDE], the IC50 in the experiment on KB [1] worked out at 8.3 µM; in the experiment with A549 it was 3.9 µM; with SW480 it was 6.4 µM.

The record behind these values is ChEMBL document CHEMBL3044864, “Synthesis and in vitro anticancer activities of novel aryl-naphthalene lignans” (Med Chem Res, 2012).
